This is an account of results in ChEMBL document CHEMBL2074338, “Characterization of organic anion transport inhibitors using cells stably expressing human organic anion transporters” (Eur J Pharmacol, 2001).

Each structure is given as a SMILES string.

The target in the assay is T1, Organic anion transporter 3 (Homo sapiens, UniProt Q8TCC7).
T1 sequence (Q8TCC7 whole entry): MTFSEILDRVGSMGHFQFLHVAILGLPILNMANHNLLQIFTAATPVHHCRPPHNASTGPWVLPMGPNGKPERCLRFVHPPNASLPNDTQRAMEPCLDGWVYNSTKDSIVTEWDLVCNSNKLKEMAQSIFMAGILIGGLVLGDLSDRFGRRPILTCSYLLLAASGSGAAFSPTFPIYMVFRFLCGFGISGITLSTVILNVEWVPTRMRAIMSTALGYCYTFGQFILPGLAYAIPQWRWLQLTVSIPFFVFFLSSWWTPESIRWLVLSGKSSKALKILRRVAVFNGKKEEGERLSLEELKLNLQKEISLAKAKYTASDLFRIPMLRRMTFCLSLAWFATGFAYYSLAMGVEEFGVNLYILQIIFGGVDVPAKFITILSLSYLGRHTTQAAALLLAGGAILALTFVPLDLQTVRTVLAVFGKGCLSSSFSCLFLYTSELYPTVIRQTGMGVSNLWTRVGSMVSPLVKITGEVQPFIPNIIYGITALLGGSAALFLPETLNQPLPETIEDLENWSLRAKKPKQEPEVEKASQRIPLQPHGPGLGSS
Put plainly: TP_TRANSPORTER: inhibition of E1S uptake in OAT3-expressing S2 cells. Format: functional, cell-based.
For `O=C(O)CCNC(=O)c1ccccc1` [BETAMIPRON], the inhibition constant Ki is 48.3 µM.

The compound `CC1(C)C[C@@H]1C(=O)N/C(=C\CCCCSC[C@H](N)C(=O)O)C(=O)O` [CILASTATIN] displayed a Ki of 231 µM.

`CCCn1c(=O)c2[nH]c(C34CC5CC(CC3C5)C4)nc2n(CCC)c1=O` [ROLOFYLLINE] had a Ki of 3.7 µM.

For orientation: Ki means the dissociation constant of the complex between target and ligand, obtained from inhibition or displacement.
